Data reported in ChEMBL document CHEMBL1201862, “PubChem BioAssay data set” (2004).
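A five-concentration, 48-hour dose response in 96-well plates underlies each endpoint, interpolated linearly between surrounding concentrations. GI50 marks 50% less growth.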 Activity calls are given as the source filed them. No stated cut-off is given here; in the data, active = GI50 up to about 1.1 µM and inactive = higher.

How the values were obtained:
Assay in all cases: NCI-60 cell line screen, 48 h
ACHN = system: ACHN
MDA-N = system: MDA-N
OVCAR-4 = system: OVCAR-4
Malme-3M = system: Malme-3M
LOX IMVI = system: LOX IMVI
UACC-62 = system: UACC-62
NCI-H460 = system: NCI-H460
HCT-15 = system: HCT-15
U-251 = system: U-251
BT-549 = system: BT-549
M14 = system: M14
OVCAR-5 = system: OVCAR-5
MDA-MB-435 = system: MDA-MB-435
MCF7 = system: MCF7
CAKI-1 = system: CAKI-1
MDA-MB-231 = system: MDA-MB-231
KM12 = system: KM12
NCI-H226 = system: NCI-H226
MOLT-4 = system: MOLT-4
HCC 2998 = system: HCC 2998

| SMILES | GI50 (ACHN) | GI50 (MDA-N) | GI50 (OVCAR-4) | GI50 (Malme-3M) | GI50 (LOX IMVI) | GI50 (UACC-62) | GI50 (NCI-H460) | GI50 (HCT-15) [µM] | GI50 (U-251) | GI50 (BT-549) | GI50 (M14) | GI50 (OVCAR-5) | GI50 (MDA-MB-435) | GI50 (MCF7) | GI50 (CAKI-1) | GI50 (MDA-MB-231) | GI50 (KM12) | GI50 (NCI-H226) | GI50 (MOLT-4) | GI50 (HCC 2998) |
| --- | --- | --- | --- | --- | --- | --- | --- | --- | --- | --- | --- | --- | --- | --- | --- | --- | --- | --- | --- | --- |
| COc1ccc(NCc2c(O)ccc3ccccc23)cc1 | 13.4 µM (inactive) | 30.1 µM (inactive) | 43.1 µM (inactive) | 20.7 µM (inactive) | 15.9 µM (inactive) | 8.09 µM (inactive) | 49.9 µM (inactive) | 13.7 | 28.3 µM (inactive) | 18.6 µM (inactive) | 14 µM (inactive) | 11.3 µM (inactive) | 42.9 µM (inactive) | 28.8 µM (inactive) | 22.3 µM (inactive) | 30 µM (inactive) | 67.1 µM (inactive) |  |  |  |
| CCOC(=O)c1cc2c3c(c(C(C)=O)c(O)c2[nH]1)N(C(C)=O)CC3 | 27.5 µM (inactive) | > 100 µM (inactive) |  | 64.3 µM (inactive) | > 100 µM (inactive) | 81.3 µM (inactive) | > 100 µM (inactive) | 49.7 | > 100 µM (inactive) | 52 µM (inactive) | 76.6 µM (inactive) | > 100 µM (inactive) | 89.3 µM (inactive) | 55.8 µM (inactive) | > 100 µM (inactive) | > 100 µM (inactive) | 45.4 µM (inactive) | 71.4 µM (inactive) | 27.7 µM (inactive) |  |
| CC(=O)c1sc2c(c1O)c(=O)n(-c1ccccc1)c(=S)n2-c1ccccc1 |  | > 100 µM (inactive) | > 100 µM (inactive) | > 100 µM (inactive) | > 100 µM (inactive) | > 100 µM (inactive) | > 100 µM (inactive) | > 100 | > 100 µM (inactive) | 95.3 µM (inactive) | > 100 µM (inactive) | > 100 µM (inactive) | > 100 µM (inactive) | > 100 µM (inactive) |  | > 100 µM (inactive) | > 100 µM (inactive) | > 100 µM (inactive) | > 100 µM (inactive) | > 100 µM (inactive) |
| O=C1CSC(c2c(O)ccc3ccccc23)N1n1c(S)nnc(/C=C/c2c(O)ccc3ccccc23)c1=O (stereo not drawn) | 0.466 µM (active) | 4.05 µM (inactive) | 0.583 µM (active) | 2.22 µM (inactive) | 1.44 µM (inactive) | 0.705 µM (active) | < 0.01 µM (active) | 0.327 | 1.33 µM (inactive) | 0.908 µM (active) | 0.935 µM (active) | 1.99 µM (inactive) | 0.966 µM (active) | 0.451 µM (active) | 0.489 µM (active) | 0.63 µM (active) |  |  | 17.9 µM (inactive) | 1.11 µM (active) |
| NCCC1(N)CCNCC1 | > 100 µM (inactive) | > 100 µM (inactive) | > 100 µM (inactive) | > 100 µM (inactive) |  | > 100 µM (inactive) | > 100 µM (inactive) | > 100 | > 100 µM (inactive) | > 100 µM (inactive) | > 100 µM (inactive) | > 100 µM (inactive) | > 100 µM (inactive) |  | > 100 µM (inactive) | > 100 µM (inactive) | > 100 µM (inactive) | > 100 µM (inactive) | > 100 µM (inactive) |  |
| CC1=C(C(N)=O)C(c2ccncc2)C(C#N)=C2SCC(=O)N12 (stereo not drawn) | > 100 µM (inactive) | > 100 µM (inactive) | > 100 µM (inactive) | > 100 µM (inactive) |  | > 100 µM (inactive) | > 100 µM (inactive) | > 100 | > 100 µM (inactive) | > 100 µM (inactive) | > 100 µM (inactive) | > 100 µM (inactive) | > 100 µM (inactive) | > 100 µM (inactive) | > 100 µM (inactive) | > 100 µM (inactive) | > 100 µM (inactive) | > 100 µM (inactive) | > 100 µM (inactive) |  |
| O=C1CCCCC[C@]12SC[C@H]1CON=C12 | 27.8 µM (inactive) | 12.5 µM (inactive) | 73.8 µM (inactive) | 18.8 µM (inactive) | 35.2 µM (inactive) | 14.5 µM (inactive) | 39.1 µM (inactive) | 31.3 | 12.3 µM (inactive) | 39.2 µM (inactive) | 22.3 µM (inactive) | > 100 µM (inactive) | 16.7 µM (inactive) | 21.9 µM (inactive) | 22.2 µM (inactive) |  | 60.3 µM (inactive) | > 100 µM (inactive) | 36.3 µM (inactive) | 29.1 µM (inactive) |
| COC(=O)c1cc(-c2ccc(-c3ccc(O)cc3)cc2)cc(-c2ccc(-c3ccc(O)cc3)cc2)c1 | 8.71 µM (inactive) | 11 µM (inactive) | 13.5 µM (inactive) |  | 6.14 µM (inactive) |  | 17.8 µM (inactive) | 7.74 |  | 13.7 µM (inactive) | 13.4 µM (inactive) | 15.7 µM (inactive) | 10.4 µM (inactive) | 4.48 µM (inactive) | 16 µM (inactive) | 17.9 µM (inactive) | 2.17 µM (inactive) | 12.7 µM (inactive) | 10.4 µM (inactive) | 11.2 µM (inactive) |
| CSc1cc(-c2cccs2)sc1-c1cc(SC)c(-c2sc(-c3sc(-c4cccs4)cc3SC)cc2SC)s1 | > 100 µM (inactive) | > 100 µM (inactive) | > 100 µM (inactive) | > 100 µM (inactive) | > 100 µM (inactive) | > 100 µM (inactive) | > 100 µM (inactive) | > 100 | > 100 µM (inactive) | > 100 µM (inactive) | > 100 µM (inactive) | 30.6 µM (inactive) | > 100 µM (inactive) | > 100 µM (inactive) | > 100 µM (inactive) | > 100 µM (inactive) | > 100 µM (inactive) |  | > 100 µM (inactive) | > 100 µM (inactive) |
| COc1ccc(C2SCC(=O)N2NC(=O)c2ccc(NC(C)=O)cc2)cc1 (stereo not drawn) | > 100 µM (inactive) | > 100 µM (inactive) | > 100 µM (inactive) |  |  | > 100 µM (inactive) | > 100 µM (inactive) | > 100 | 40.6 µM (inactive) | 74.1 µM (inactive) | > 100 µM (inactive) | > 100 µM (inactive) | > 100 µM (inactive) | > 100 µM (inactive) |  | 26.5 µM (inactive) | > 100 µM (inactive) | > 100 µM (inactive) | > 100 µM (inactive) | > 100 µM (inactive) |
| CCOC(=O)c1c[nH]cc1-c1cn(S(=O)(=O)c2ccccc2)cc1C | 18.9 µM (inactive) | 17.9 µM (inactive) | 39.4 µM (inactive) | 15 µM (inactive) | 23.4 µM (inactive) | 15.3 µM (inactive) | 18.4 µM (inactive) | 22.9 | 25.6 µM (inactive) | 27.1 µM (inactive) | 21.7 µM (inactive) | 52.7 µM (inactive) | > 10 µM (inactive) | 29 µM (inactive) | 17.7 µM (inactive) | 20.5 µM (inactive) | 19.6 µM (inactive) |  | 20.4 µM (inactive) | 17.5 µM (inactive) |
| CSc1nncc2[nH]cnc12 | > 100 µM (inactive) | > 100 µM (inactive) |  |  |  | > 100 µM (inactive) | > 100 µM (inactive) | > 100 | > 100 µM (inactive) | > 100 µM (inactive) | > 100 µM (inactive) | > 100 µM (inactive) | > 100 µM (inactive) | > 100 µM (inactive) | > 100 µM (inactive) | > 100 µM (inactive) | > 100 µM (inactive) | > 100 µM (inactive) | > 100 µM (inactive) |  |
| CC(C)=CCC/C(C)=C/CCC(C(=O)COCc1ccccc1)P1(=O)OC(C)(C)CN1C(C)(C)C (stereo not drawn) | > 100 µM (inactive) | > 100 µM (inactive) | 23.9 µM (inactive) |  | 27.5 µM (inactive) | > 100 µM (inactive) | 52.2 µM (inactive) | 48.6 | > 100 µM (inactive) | > 100 µM (inactive) | 93.5 µM (inactive) | > 100 µM (inactive) | 51.4 µM (inactive) | 33.8 µM (inactive) | > 100 µM (inactive) | > 100 µM (inactive) | 36 µM (inactive) | 30.6 µM (inactive) | 15.9 µM (inactive) |  |
| O=S(=O)(c1ccccc1)n1c(C(O)c2ccccc2)cc2ccccc21 (stereo not drawn) | 15.7 µM (inactive) |  | 18.1 µM (inactive) | 18.3 µM (inactive) | 30.1 µM (inactive) | 12.9 µM (inactive) | 25.3 µM (inactive) | 21.3 | 16.7 µM (inactive) | 15.8 µM (inactive) | 14.9 µM (inactive) | 15.7 µM (inactive) | 16.6 µM (inactive) | 21.2 µM (inactive) | 17.7 µM (inactive) | 17.3 µM (inactive) | 15 µM (inactive) | 13.1 µM (inactive) | 36.4 µM (inactive) | 17.5 µM (inactive) |
| COC(=O)[C@@H]1O[C@]12C(CO[Si](C)(C)C(C)(C)C)OC(n1ccc(=O)[nH]c1=O)C2O[Si](C)(C)C(C)(C)C (stereo partly drawn) | 22 µM (inactive) | 33.1 µM (inactive) | 45.7 µM (inactive) |  | 14.8 µM (inactive) | 24.2 µM (inactive) | 15.5 µM (inactive) | 28.3 | 26.2 µM (inactive) | 17.5 µM (inactive) | 15.3 µM (inactive) | 25.1 µM (inactive) | 23.6 µM (inactive) | 12.4 µM (inactive) | 19.7 µM (inactive) | 28.2 µM (inactive) | 31.7 µM (inactive) | 0.435 µM (active) | 8.36 µM (inactive) | 6.87 µM (inactive) |
| O=c1cc(N2CCOCC2)oc2c(-c3ccccc3)cccc12 [LY-294002] | 7.45 µM (inactive) | 11.8 µM (inactive) | 2.7 µM (inactive) | 0.286 µM (active) | 3.72 µM (inactive) | 3.79 µM (inactive) | 11.4 µM (inactive) | 7.91 | 19.5 µM (inactive) | 5.7 µM (inactive) | 11.1 µM (inactive) | 12.1 µM (inactive) | 7.8 µM (inactive) | 3.09 µM (inactive) | 2.39 µM (inactive) | 3.13 µM (inactive) | 12.1 µM (inactive) | 3.93 µM (inactive) | 11.4 µM (inactive) |  |
